# Read-outs that look alike come from different tables or passages of the source.
# Experiments:
# [1] = tested on: primary rat mixed cortical cells; test: In vitro myelination assay (MBP positive myelin strands, fold myelin pixels above background); type: cell-based; settings: Rattus norvegicus; for fold induction at 1 µM: 1.0 μM compound; for fold induction at 10 µM: 10.0 μM compound
# In short: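 Myelination read as total MBP-immunopositive strand pixels per well, imaged at 10× after fixation on day 14 and expressed relative to untreated wells, at 1.0 and 10.0 μM. Cells: dissociated postnatal day 1 rat cortex, cultured two weeks with compound, re-dosed at days 6 and 10.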
# [2] = tested on: C57BL/6 mice demyelinated with cuprizone; test: In vivo mouse cuprizone assay (new myelin, MBP positive / MOG negative area); settings: for effect measured as new myelin generated in response to compound treatment compared to control with no added compound: Regimen A (QD or BID for 14 days via oral gavage), various doses; for effect (new myelin generated compared to control): Regimen A, oral gavage
# Excerpt: Assays for Detecting and Measuring Remyelination Properties of Compounds In Vivo Mouse Cuprizone Assay:
# Cuprizone Feeding Protocol:
# 2 month old female C57BL/6 mice (Stock Number: 000664) were purchased from Jackson Labs and fed for 4-10 months with a 0.2% cuprizone chow (provided by Research Diets, Product # D10020701R, Description AIN-76A Rodent Diet with 0.2% cuprizone) using cuprizone purchased from Sigma (Cat #14690-100G). Chow was provided ad libitum, and refreshed every 4 days to ensure stability of the cuprizone. Mice were maintained on this diet for 4-10 months before initiation of the experiments.
# 1) 24 hours prior to the start of dosing, 6 to 10 mice were switched from cuprizone chow to normal chow (Picolab rodent diet 20 EXT IRR 5053, irradiated) without added cuprizone. These mice were maintained on normal chow throughout the course of dosing.
# 2) 6 to 10 mice per group were randomized into new cages such that mice that were housed in one cage during the cuprizone diet were not housed together in one dose group during the study.
# 3) Mice were dosed with compound in one of two regimens: Regimen A: mice were dosed QD or BID for 14 days via oral gavage. Regimen B: mice were dosed QD or BID for 14 days via IP injection. However, other dosing schedules and/or routes of administration may also be used.
# 4) On the last day of dosing, dried blood spots were collected at multiple time points following the last dose. Often this was 30 minutes, 2, 6 and 24 hours following the final dose on day 14 via the tail vein.
# Perfusion and Sectioning:
# 1) The day after the last day of dosing, mice were transcardially perfused with 12 ml of PBS (Sigma, P4417) followed by 20 ml of 3.2% paraformaldehyde in PBS (Electron Microscopy Sciences #15714-S). The brains were removed via standard dissection techniques and each was postfixed in 3.2% paraformaldehyde (20 ml) for 24-48 hours at room temperature in sealed scintillation vials.
# 2) Serial 50 micron sections were collected through the anterior posterior extent of the brain, from just behind the olfactory bulb, through visual cortex using a vibrating microtome, the V-STAR (described in International Publication No. WO 2013/012799 and U.S. Pat. No. 8,967,024 both of which are incorporated herein by reference in their entirety). Sections were collected in phosphate buffered saline (PBS). Vibratome speed was set to 1.1 mm/s and amplitude was set to 0.8 mm.
# 3) A series of every 24th section was removed for staining yielding 5 sections per brain.
# 1) Tissue sections were stained using an automated system for processing blots (hereinafter the “blotinator”) (described in WO2011/087646 and U.S. Pat. Nos. 8,337,754 and 8,679,406 each of which is incorporated herein by reference in its entirety). Brain sections were placed in the blotinator plate and bathed in PBS. The blotinator applied primary antibodies (MOG and MBP together) and Hoechst nuclear stain for 12 hours at room temperature with constant shaking.
# The following stains were diluted in blocking buffer (described below):
# Hoechst nuclear stain (0.5 mg/ml)(bisBenzimide H 33342 trihydrochloride Sigma #33342).
# Myelin basic Protein (MBP) antibody (Abcam Cat # ab7349) was diluted at a 1:750 ratio in blocking buffer).
# Myelin Oligodendrocyte Glycoprotein (MOG) (R&D systems Cat # AF2439) was diluted at a 1:250 ratio in blocking buffer.
# Antibodies were diluted in blocking buffer, which consisted of 0.3% Triton X-100 (Sigma Cat #234729), 0.02% Sodium Azide (Sigma Cat # S2002) and 8% fetal bovine serum in PBS (Sigma Cat # F2442).
# 2) The blotinator washed the samples 4 times for 5 minutes each with a wash buffer (0.2% Triton X-100 in PBS).
# 3) The blotinator applied secondary antibodies diluted in blocking buffer and incubated them for 2 hours with constant shaking.
# Alexa 488 donkey anti-rat secondary (Life technologies Cat # A-21208) was diluted at 1:1000 in blocking buffer. […]
# [3] = relative to baseline of no added compound, read-out: Fold myelin pixels above background, 1.0 μM
# [4] = relative to baseline of no added compound, read-out: Fold myelin pixels above background, 10.0 μM
# [5] = read-out: Fold myelin pixels above background relative to baseline of no added compound
SMILES,"fold induction at 1 µM [1, 5]","fold induction at 10 µM [1, 5]",other results
"Cc1cc(Nc2ncn(-c3cc(F)cc(F)c3)n2)cc(N2CCN(C3COC3)CC2)c1 [Compound 33, 1-(3,5-difluorophenyl)-N-[3-methyl-5-[4-(oxetan-3-yl)piperazin-1-yl]phenyl]-1,2,4-triazol-3-amine]",,,"fold induction at 1 µM [1, 3]: 100 to 1000; fold induction at 10 µM [1, 4]: ≤ 1; effect measured as new myelin generated in response to compound treatment compared to control with no added compound [2]: positive effect; effect (new myelin generated compared to control) ([2]; 10 mpk): positive effect; effect (new myelin generated compared to control) ([2]; 25 mpk): positive effect; effect (new myelin generated compared to control) ([2]; 50 mpk): positive effect"
"CCc1cc(Nc2ncn(-c3cnccn3)n2)cc(N2CCN(C3COC3)CC2)c1 [Compound 48, N-[3-ethyl-5-[4-(oxetan-3-yl)piperazin-1-yl]phenyl]-1-pyrazin-2-yl-1,2,4-triazol-3-amine]",,,"fold induction at 1 µM [1, 3]: 100 to 1000; fold induction at 10 µM [1, 4]: 100 to 1000; effect measured as new myelin generated in response to compound treatment compared to control with no added compound [2]: positive effect; effect (new myelin generated compared to control) ([2]; 30 mpk): positive effect; effect (new myelin generated compared to control) ([2]; 50 mpk): positive effect; effect (new myelin generated compared to control) ([2]; 100 mpk): positive effect"
"CCc1cc(Nc2ncn(-c3cc(F)cc(F)c3)n2)cc(N2CCN(C3COC3)CC2)c1 [Compound 107, 1-(3,5-difluorophenyl)-N-[3-ethyl-5-[4-(oxetan-3-yl)piperazin-1-yl]phenyl]-1,2,4-triazol-3-amine]",,,"fold induction at 1 µM [1, 3]: 1000 to 10000; fold induction at 10 µM [1, 4]: 1000 to 10000; effect measured as new myelin generated in response to compound treatment compared to control with no added compound [2]: positive effect; effect (new myelin generated compared to control) ([2]; 30 mpk): positive effect; effect (new myelin generated compared to control) ([2]; 90 mpk): positive effect"
"COCC(=O)N1CC(C)(Nc2cc(C)cc(Nc3ncn(-c4cc(F)cc(F)c4)n3)c2)C1 [Compound 1075, 1-[3-[3-[[1-(3,5-difluorophenyl)-1,2,4-triazol-3-yl]amino]-5-methyl-anilino]-3-methyl-azetidin-1-yl]-2-methoxy-ethanone]",1 to 10,≤ 1,
"Cc1cc(Nc2ncn(-c3cc(F)cc(F)c3)n2)cc(N2CC(C)(C#N)C2)c1 [Compound 1076, 1-[3-[[1-(3,5-difluorophenyl)-1,2,4-triazol-3-yl]amino]-5-methyl-phenyl]-3-methyl-azetidine-3-carbonitrile]",10 to 100,≤ 1,
"Cc1cc(Nc2ncn(-c3cc(F)cc(F)c3)n2)cc(N2CCCC2CN2CCCC2CO)c1 (centres unmarked) [Compound 1077, [1-[[1-[3-[[1-(3,5-difluorophenyl)-1,2,4-triazol-3-yl]amino]-5-methyl-phenyl]pyrrolidin-2-yl]methyl]pyrrolidin-2-yl]methanol]",1 to 10,≤ 1,
"Cc1cc(Nc2ncn(-c3cc(F)cc(F)c3)n2)cc(N2CCN(CC(O)CN(C)C)CC2)c1 (centres unmarked) [Compound 1078, 1-[4-[3-[[1-(3,5-difluorophenyl)-1,2,4-triazol-3-yl]amino]-5-methyl-phenyl]piperazin-1-yl]-3-(dimethylamino)propan-2-ol]",1 to 10,≤ 1,
"Cc1cc(Nc2ncn(-c3cc(F)cc(F)c3)n2)cc(N2CC(F)(CO)C2)c1 [Compound 1079, [1-[3-[[1-(3,5-difluorophenyl)-1,2,4-triazol-3-yl]amino]-5-methyl-phenyl]-3-fluoro-azetidin-3-yl]methanol]",10 to 100,≤ 1,
"[2H]c1nc(Nc2cc(C)cc(N3CCN(C4COC4)CC3)c2)nn1-c1cc(F)cc(F)c1 [Compound 1080, 5-deuterio-1-(3,5-difluorophenyl)-N-[3-methyl-5-[4-(oxetan-3-yl)piperazin-1-yl]phenyl]-1,2,4-triazol-3-amine]",10 to 100,10 to 100,
"Cc1cc(Nc2ncn(-c3cc(F)cc(F)c3)n2)cc(N2CC3(C2)CN(C(C)C)C3)c1 [Compound 1081, 1-(3,5-difluorophenyl)-N-[3-(2-isopropyl-2,6-diazaspiro[3.3]heptan-6-yl)-5-methyl-phenyl]-1,2,4-triazol-3-amine]",1 to 10,1 to 10,
"Cc1cc(NCCN2CCOCC2C)cc(Nc2ncn(-c3cc(F)cc(F)c3)n2)c1 (centres unmarked) [Compound 1082, N1-[1-(3,5-difluorophenyl)-1,2,4-triazol-3-yl]-5-methyl-N3-[2-(3-methylmorpholin-4-yl)ethyl]benzene-1,3-diamine]",10 to 100,≤ 1,
"Cc1cc(Nc2ncn(-c3cc(F)cc(F)c3)n2)cc(N2CCC(C3CCOC3)C2)c1 (centres unmarked) [Compound 1083, 1-(3,5-difluorophenyl)-N-[3-methyl-5-(3-tetrahydrofuran-3-ylpyrrolidin-1-yl)phenyl]-1,2,4-triazol-3-amine]",1 to 10,≤ 1,
"Cc1cc(NCC2CN(C(=O)OC(C)(C)C)C2)cc(Nc2ncn(-c3cc(F)cc(F)c3)n2)c1 [Compound 1084, tert-butyl 3-[[3-[[1-(3,5-difluorophenyl)-1,2,4-triazol-3-yl]amino]-5-methyl-anilino]methyl]azetidine-1-carboxylate]",10 to 100,1 to 10,
"Cc1cc(Nc2ncn(-c3ccccc3)n2)c(F)c(N2CCN(C3COC3)CC2)c1 [Compound 1085, N-[2-fluoro-5-methyl-3-[4-(oxetan-3-yl)piperazin-1-yl]phenyl]-1-phenyl-1,2,4-triazol-3-amine]",10 to 100,10 to 100,
"[2H]C([2H])([2H])C([2H])(N1CCN(c2cc(C)cc(Nc3ncn(-c4ccccc4)n3)c2)CC1)C([2H])([2H])[2H] [Compound 1086, N-[3-methyl-5-[4-[1,2,2,2-tetradeuterio-1-(trideuteriomethyl)ethyl]piperazin-1-yl]phenyl]-1-phenyl-1,2,4-triazol-3-amine]",10 to 100,≤ 1,
"Cc1cc(Nc2ncn(-c3cc(F)cc(F)c3)n2)cc(N2CCOC(COCC3CC3)C2)c1 (centres unmarked) [Compound 1087, N-[3-[2-(cyclopropylmethoxymethyl)morpholin-4-yl]-5-methyl-phenyl]-1-(3,5-difluorophenyl)-1,2,4-triazol-3-amine]",1 to 10,1 to 10,
"[2H]C1(N2CCN(c3cc(C)cc(Nc4ncn(-c5cc(F)cc(F)c5)n4)c3)CC2)COC1 [Compound 1110, N-[3-[4-(3-deuteriooxetan-3-yl)piperazin-1-yl]-5-methyl-phenyl]-1-(3,5-difluorophenyl)-1,2,4-triazol-3-amine]",1000 to 10000,1 to 10,
"[2H]C1([2H])N(C)C([2H])([2H])C([2H])([2H])N(c2cc(C)cc(Nc3ncn(-c4ccccc4)n3)c2)C1([2H])[2H] [Compound 1111, N-[3-methyl-5-(2,2,3,3,5,5,6,6-octadeuterio-4-methyl-piperazin-1-yl)phenyl]-1-phenyl-1,2,4-triazol-3-amine]",100 to 1000,≤ 1,
